# In patent US10759809B2 (priority 2017, dated 2020):
# Structures can show the parent of a compound that is named as a salt.
# How the values were obtained:
# Kunming mice = assay: animal or person; type: in vivo; details: Mus musculus, po, 1 h
# SD rat = assay: animal or person; type: in vivo; details: po, 1 h
# SD rats = details: male, rat, in vivo
# Mice = details: both, mouse, in vivo
Structure (SMILES),ED50 (Kunming mice) [mg/kg],ED50 (SD rat) [mg/kg],"Residence time in drug-side box (Mean ± S, s) (SD rats) [s]",Inhibition of activated carbon excretion (Mice) [%]
"[2H]C([2H])(C1CC1)N1CC[C@]23c4c5ccc(O)c4O[C@H]2[C@@]2(OC)CC[C@@]3(C[C@@H]2[C@](C)(O)C(C)(C)C)[C@H]1C5 [I1•HCl, (2S)-2-[(5R, 6R, 7R, 14S)—N-(cyclopropyl-dideuteromethyl)-4,5-epoxy-6, 14-ethano-3-hydroxy-6-methoxymorphinan-7-yl]-3,3-dimethylbutan-2-ol]",6.54 ± 2.96,19 ± 7.29,149.19 ± 36.88,36.31 ± 2.78
"[2H]c1c([2H])c2c3c(c1O)O[C@H]1[C@@]4(OC)CC[C@@]5(C[C@@H]4[C@](C)(O)C(C)(C)C)[C@@H](C2)N(CC2CC2)CC[C@]315 [I5•HCl, (2S)-2-[(5R, 6R, 7R, 14S)-1,2-dideutero-N-cyclopropylmethyl-4,5-epoxy-6,14-ethano-3-hydroxy-6-methoxymorphinan-7-yl]-3,3-dimethylbutan-2-ol]",8.02 ± 11.3,31.1 ± 10.9,–,–
"[2H]c1c([2H])c2c3c(c1O)O[C@H]1[C@@]4(OC)CC[C@@]5(C[C@@H]4[C@](C)(O)C(C)(C)C)[C@@H](C2)N(C([2H])([2H])C2CC2)CC[C@]315 [I6•HCl, (2S)-2-[(5R, 6R, 7R, 14S)-1,2-dideutero-N-(cyclopropyl-dideuteromethyl)-4,5-epoxy-6,14-ethano-3-hydroxy-6-methoxymorphinan-7-yl]-3,3-dimethylbutan-2-ol]",5.83 ± 2.23,18 ± 8.56,–,–
"[2H]C1C([2H])[C@]23C[C@H]([C@](C)(O)C(C)(C)C)[C@@]1(OC)C1Oc4c(O)ccc5c4[C@@]12CCN(CC1CC1)[C@@H]3C5 (stereo partly drawn) [I7•HCl, (2S)-2-[(5R, 6R, 7R, 14S)—N-(cyclopropyl-methyl)-4,5-epoxy-6,14-dideuteroethano-3-hydroxy-6-methoxymorphinan-7-yl]-3,3-dimethylbutan-2-ol]",12 ± 11.7,38 ± 19.7,–,–
"CO[C@]12CC[C@@]3(C[C@@H]1[C@](C)(O)C(C)(C)C)[C@H]1Cc4ccc(O)c5c4[C@@]3(CCN1CC1CC1)[C@H]2O5 [buprenorphine•HCl, (2S)-2-[(5R, 6R, 7R, 14S)—N-cyclopropylmethyl-4,5-epoxy-6, 14-ethano-3-hydroxy-6-methoxymorphinan-7-yl]-3,3-di methylbutan-2-ol, reference compound]",11.8 ± 11.7,> 50,277.56 ± 164.99,63.87 ± 2.16
